Test results published in patent US9446063B2, “Methods for treating type-2 diabetes and obesity” (priority 2009, dated 2016).
Like-named read-outs stand apart in the source and are kept apart here. Marks after values point to notes of the source that are not given here. Each block holds one molecule with its values, some of them ahead of it.

Columns and labels:
[1] = test system: potato microtubers of cvs. Onaway and Goldrush; assay: H2O2 hormesis: total phenolic content of microtubers (Folin-Ciocalteu); conditions: for Total phenolics (Folin-Ciocalteu) of microtubers: mean ± SE (n = 5)
Method: (§1) Based on a preliminary study, concentrations of 2 and 4 mM H2O2 and spray volume of ˜6 ml were selected for hormetic treatments. Phase II plantlets of cvs. Onaway and Goldrush (at 2- and 3-weeks) were treated with three concentrations (0, 2, 4 mM) of H2O2 with 5 replicates×4 containers per replicate (20 containers per treatment). Results were analyzed for variance (ANOVA) test using General Linear Model (GLM) of Statistical Analysis System (SAS) (SAS v 9.2, 2010) (SAS Institute Inc., Cary, N.C., USA). Means were compared using Duncan's Multiple Comparison test (P≦0.05).
(§2) At harvest, microtubers of cvs. Onaway and Goldrush were weighed, and averaged from 20 separate containers. For each replicate, microtubers were pooled for analysis, for a total of 5 samples per treatment/cultivar.

[2] = test system: potato microtubers of cvs. Onaway and Goldrush; assay: H2O2 hormesis: antioxidant capacity (DPPH) of in vitro-grown microtubers; conditions: for DPPH total antioxidant capacity of microtubers: mean ± SE (n = 5)
Method: Plantlets of cvs. Onaway and Goldrush were selected for their relatively high concentrations of antioxidants in field-grown tubers. […] Medium consisted of basal salt solution and organic fraction solidified with 7 g 1^-1 agar ([…]) adjusted to pH 5.7 before autoclaving at 121° C. for 20 min. […] (1994). […] Phase I promoted the vegetative growth of plantlets which was luxurious after 4 weeks. In Phase II, the residual medium was drained and replaced with 150 ml of liquid induction medium containing increased sucrose (80 gl^-1) and no growth regulators. […] Phase II plantlets of cvs. […] At harvest, microtubers of cvs. […] (2007).

[3] = test system: potato microtubers of cvs. Onaway and Goldrush; conditions: for Increase of ascorbic acid content in comparison to control: cv. Goldrush microtubers; for Ascorbic acid of microtubers / Caffeic acid of microtubers / Chlorogenic acid of microtubers: mean ± SE (n = 5)
Method: as §1, §2

[4] = test system: potato microtubers of cvs. Onaway and Goldrush; assay: H2O2 hormesis: microtuber mass / yield; conditions: for Microtuber mass: mean of 20 containers
Method: (1994). […] Cultures were placed into a growth chamber adjusted to 20±2° C. under 85 μmol m^-2s^-1 cool white florescent illumination with 16:8 h day:night cycle. Phase I promoted the vegetative growth of plantlets which was luxurious after 4 weeks. In Phase II, the residual medium was drained and replaced with 150 ml of liquid induction medium containing increased sucrose (80 gl^-1) and no growth regulators. Phase II incubation occurred at cooler temperature (15±2° C.), under reduced illumination (50 μmol m^-2s^-1), and reversed (8:16 h) day:night cycle. […] Phase II plantlets of cvs. […] At harvest, microtubers of cvs. […] (2007).

[5] = HPLC quantification of ascorbic acid, chlorogenic acid, caffeic acid, ferulic acid and rutin in tubers, tuber tissues and extracts; conditions: for % reduction; from 1 to 7 months storage (HPLC content): tubers of 12 Canadian-grown cultivars, cold storage
Method: This assay was based on the method developed by Shakya and Navarre (J Agric Food Chem (2006) 54:5253-5260). Initially, samples (50 mg of freeze-dried powder) were extracted in 0.9 mL of extraction buffer (50% MeOH, 2.5% metaphosphoric acid, 1 mM EDTA) in a 2 mL screw cap tube. Samples were vortexed for 30 sec and centrifuged at 11,070×g for 15 min at 4° C. The supernatant was transferred to a 1.5 mL glass vial. The remaining pellet was re-extracted with 0.6 mL of extraction buffer and centrifuged. The supernatants were combined and concentrated in a Speed Vac (Thermo Savant SC 210A, Waltham, Mass.). The concentrated samples were solubilised with 500 mL of extraction buffer and filtered using 0.45 mm membrane filters (Durapore, PVDF) into 1 mL HPLC glass vials. Samples were kept chilled at all times and shielded from bright light. Samples were analyzed using a Varian HPLC system with a quaternary gradient pump, a single wavelength UV/VIS detector, and an autosampler with refrigerated sample compartment (Varian Canada Inc, Mississauga, ON). Samples were eluted using an Onyx reverse-phase HPLC column (100×4.5 mm) (Phenomenex, Netherlands), a solvent flow rate of 2 mL/min and a solvent gradient of 0-1 min 100% buffer A (10 mM formic acid, pH 3.5, with NH4OH), 1-5 min 0-30% buffer B (100% methanol with 5 mM ammonium formate), 5-6.5 min 40-0% buffer B, 6.5-8.5 min 70-100% buffer B. The phenolic acids in the samples were analyzed qualitatively and quantitatively using standards.
Ascorbic acid concentration was also determined as it is also an important antioxidant compound present in potato. HPLC determination is based on the retention time of a particular compound within a mixed sample in the column compared with purchased pure standards. Three different buffers (Buffer A, Buffer B, & Extraction buffer) were prepared. Buffer A was 10 mM formic acid (Fisher Scientific, ON, Canada) (0.46 g of formic acid in 1 L distilled water adjusted to pH 3.5 using 1M NH4OH solution). Buffer A was kept in a fridge (4° C.) until used. Buffer B was 5 mM ammonium formate (Sigma-Aldrich Chemicals, Germany) (0.32 g of ammonium formate in 1 L 100% methanol with agitation on a magnetic stirrer as ammonium formate is highly insoluble). Buffer B was also refrigerated. The extraction buffer was 50% methanol (Fisher Scientific, ON, Canada), 2.5% metaphosphoric acid (Aldrich Chemicals, WI, USA) and 1 mM ethylenediaminetetraacetic acid (EDTA; Sigma-Aldrich Chemicals, Germany) (50 ml of 100% methanol, 2.5 g of metaphosphoric acid, and 0.4 g of EDTA in 100 ml distilled water with stirring followed by filtering using a cup filter (Millipore Corporation, MS, USA). The extraction buffer was also refrigerated. […]

[6] = test system: IL-8 release in Caco-2 cell cultures; conditions: cited from earlier work
[7] = test system: carnitine palmitoyltransferase; conditions: cited from earlier work
[8] = test system: C57BL/6J mice with diet-induced obesity; assay: Body weight gain in high fat diet feeding study (10 wk); format: in vivo; conditions: for Body weight gain: mean ± SD (n = 3-5)
male mice = conditions: high fat diet, 1 g/kg diet; cited from earlier work
[9] = test system: C57BL/6J mice with diet-induced obesity; assay: Blood glucose concentration at the end of the HFD feeding period; conditions: mean ± SD (n = 3-5)
[10] = Females, HFD + 1X (1x CGA 8 mg/kg HFD; 1x FA 20 mg/kg HFD)
[11] = Females, HFD + 5X (1x CGA 8 mg/kg HFD; 1x FA 20 mg/kg HFD)
[12] = Females, HFD + 25X (1x CGA 8 mg/kg HFD; 1x FA 20 mg/kg HFD)
[13] = Males, HFD + 1X (1x CGA 8 mg/kg HFD; 1x FA 20 mg/kg HFD)
[14] = Males, HFD + 5X (1x CGA 8 mg/kg HFD; 1x FA 20 mg/kg HFD)
[15] = Males, HFD + 25X (1x CGA 8 mg/kg HFD; 1x FA 20 mg/kg HFD)

SMILES: OO [H2O2, Hydrogen peroxide]
Total phenolics (Folin-Ciocalteu) of microtubers ([1]; cv. Goldrush, 2 mM H2O2 spray): 7.076 ± 0.01^a mg/g
Total phenolics (Folin-Ciocalteu) of microtubers ([1]; cv. Goldrush, 4 mM H2O2 spray): 6.354 ± 0.00^a mg/g
Total phenolics (Folin-Ciocalteu) of microtubers ([1]; cv. Onaway, 2 mM H2O2 spray): 4.376 ± 0.00^a mg/g
Total phenolics (Folin-Ciocalteu) of microtubers ([1]; cv. Onaway, 4 mM H2O2 spray): 3.789 ± 0.00^a mg/g
Effect on total polyphenolic levels (Folin-Ciocalteu) ([1]; either cultivar, 2 and 4 mM): not significantly affected
Increase of antioxidant capacity (DPPH) over control ([2]; cv. Goldrush microtubers, 2 mM H2O2 spray): 26%
Increase of antioxidant capacity (DPPH) over control ([2]; cv. Goldrush microtubers, 4 mM H2O2 spray): 20%
DPPH total antioxidant capacity of microtubers ([2]; cv. Goldrush, 2 mM H2O2 spray): 1.316 ± 0.02^a mg/g
DPPH total antioxidant capacity of microtubers ([2]; cv. Goldrush, 4 mM H2O2 spray): 1.214 ± 0.04^b mg/g
Increase of antioxidant capacity (DPPH) over control ([2]; cv. Onaway microtubers, 2 or 4 mM H2O2): 12-14%
DPPH total antioxidant capacity of microtubers ([2]; cv. Onaway, 2 mM H2O2 spray): 0.862 ± 0.02^a mg/g
DPPH total antioxidant capacity of microtubers ([2]; cv. Onaway, 4 mM H2O2 spray): 0.882 ± 0.04^a mg/g
Increase of ascorbic acid content in comparison to control ([3]; 2 mM): 35%
Increase of ascorbic acid content in comparison to control ([3]; 4 mM): 34%
Effect on microtuber caffeic acid content ([3]; cv. Goldrush, 2 mM): significant depression
Increase of microtuber chlorogenic acid content ([3]; cv. Goldrush, 2 mM): 16.8%
Ascorbic acid of microtubers ([3]; cv. Goldrush, 2 mM H2O2 spray): 0.269 ± 0.03^a mg/g
Caffeic acid of microtubers ([3]; cv. Goldrush, 2 mM H2O2 spray): 0.008 ± 0.00^b mg/g
Chlorogenic acid of microtubers ([3]; cv. Goldrush, 2 mM H2O2 spray): 0.561 ± 0.02^a mg/g
Ascorbic acid of microtubers ([3]; cv. Goldrush, 4 mM H2O2 spray): 0.265 ± 0.00^a mg/g
Caffeic acid of microtubers ([3]; cv. Goldrush, 4 mM H2O2 spray): 0.011 ± 0.00^a mg/g
Chlorogenic acid of microtubers ([3]; cv. Goldrush, 4 mM H2O2 spray): 0.460 ± 0.02^b mg/g
Treatment effect on ascorbic acid content ([3]; cv. Onaway microtubers): not significant
Increase of microtuber chlorogenic acid content ([3]; cv. Onaway, 2 mM): 17.3%
Ascorbic acid of microtubers ([3]; cv. Onaway, 2 mM H2O2 spray): 0.170 ± 0.02^a mg/g
Caffeic acid of microtubers ([3]; cv. Onaway, 2 mM H2O2 spray): 0.002 ± 0.00^a mg/g
Chlorogenic acid of microtubers ([3]; cv. Onaway, 2 mM H2O2 spray): 0.304 ± 0.02^a mg/g
Ascorbic acid of microtubers ([3]; cv. Onaway, 4 mM H2O2 spray): 0.164 ± 0.02^a mg/g
Caffeic acid of microtubers ([3]; cv. Onaway, 4 mM H2O2 spray): 0.001 ± 0.00^b mg/g
Chlorogenic acid of microtubers ([3]; cv. Onaway, 4 mM H2O2 spray): 0.265 ± 0.04^ab mg/g
Effect on microtuber yield ([4]; at the dosage applied (2, 4 mM)): did not affect yield
Microtuber mass ([4]; cv. Goldrush, 2 mM H2O2 spray): 10.25^a g
Microtuber mass ([4]; cv. Goldrush, 4 mM H2O2 spray): 10.26^a g
Microtuber mass ([4]; cv. Onaway, 2 mM H2O2 spray): 5.09^a g
Microtuber mass ([4]; cv. Onaway, 4 mM H2O2 spray): 5.07^a g

SMILES: O=C(/C=C/c1ccc(O)c(O)c1)O[C@@H]1C[C@](O)(C(=O)O)C[C@@H](O)[C@H]1O [chlorogenic acid]
Carnitine palmitoyltransferase activity [7]: unaffected
Dose needed to suppress IL-8 secretion to levels seen in control cultures [6]: 2000 µM
Body weight gain [8, 10]: 9.7 ± 4.9^a g
Body weight gain [8, 11]: 7.6 ± 4.1^a g
Body weight gain [8, 12]: 9.8 ± 3.4^a g
Body weight gain [8, 13]: 22.4 ± 0.8^b g
Body weight gain [8, 14]: 18.2 ± 4.1^a,b,c g
Body weight gain [8, 15]: 8.8 ± 5.3^c g
Effect of pure compound on body weight ([8]; female mice, up to 200 mg/kg diet): no statistically significant effect
Effect of pure compound on body weight gain ([8]; male mice, 8-200 mg/kg diet): did not affect body weight gain
Effect on body weight gain (male mice): no effect on body weight gain

SMILES: O=C(/C=C/c1ccc(O)c(O)c1)O[C@@H]1C[C@@](O)(C(=O)O)C[C@@H](O)[C@@H]1O [neochlorogenic acid]
Carnitine palmitoyltransferase activity [7]: enhanced

Continued, in another order:

% reduction of ascorbic acid with storage ([5]; tubers of 5 foreign cultivars, 1 to 7 months storage): 36.09%
% reduction; from 1 to 7 months storage (HPLC content) [5]: 80.48%
SMILES: O=C1O[C@H]([C@@H](O)CO)C(O)=C1O [ascorbic acid]

% reduction; from 1 to 7 months storage (HPLC content) [5]: 92.16%
SMILES: O=C(O)/C=C/c1ccc(O)c(O)c1 [caffeic acid]
Dose needed to suppress IL-8 secretion to levels seen in control cultures [6]: 2000 µM

% reduction; from 1 to 7 months storage (HPLC content) [5]: 90.21%
SMILES: COc1cc(/C=C/C(=O)O)ccc1O [ferulic acid]
Fasting blood glucose [9, 10]: 3.8 ± 0.6^a mmol/L
Fasting blood glucose [9, 11]: 6.9 ± 1.1^a mmol/L
Fasting blood glucose [9, 12]: 4.7 ± 1.6^a mmol/L
Fasting blood glucose [9, 13]: 5.2 ± 0.6^b mmol/L
Fasting blood glucose [9, 14]: 6.1 ± 1.2^a mmol/L
Fasting blood glucose [9, 15]: 5.4 ± 0.2^b mmol/L
Body weight gain [8, 10]: 9.7 ± 3.4^a g
Body weight gain [8, 11]: 6.3 ± 1.2^a g
Body weight gain [8, 12]: 8.8 ± 5.0^a g
Body weight gain [8, 13]: 12.4 ± 3.7^a,b,c g
Body weight gain [8, 14]: 10.8 ± 2.3^a,b,c g
Body weight gain [8, 15]: 11.0 ± 6.5^a,b,c g
Effect of pure compound on body weight gain ([8]; both sexes, up to 500 mg/kg diet): ineffective in suppressing body weight gain
